{
  "source": "patent EP4660195A1",
  "about": "“CRYSTALLINE FORMS OF AVATROMBOPAG MALEATE AND PREPARATION THEREOF” (NOUCOR HEALTH S.A., priority 2024, dated 2025)",
  "key": {"[1]": {"settings": "pH 1 to 11; cited from earlier work"}, "[2]": {"settings": "in vivo; cited from earlier work"}, "[3]": {"assay": "Stability of screened solid forms with time", "type": "physicochemical", "experimental": "Form C9 was only exclusively obtained using chloroform as a solvent, which solvent is not suitable for industrial manufacturing of a drug according to regulatory requirements. These solid forms are consequently not suitable for industrial manufacturing of a drug.\nAmorphous Avatrombopag maleate (200 mg) was suspended in methanol (10 mL) at room temperature, and stirred for 15 hours, filtered and dried in the air. […] After 24 hours, the solid was analyzed by PXRD again - only form beta was observed. ^1H NMR analysis of said solid form indicated the presence of methanol in the crystalline form. In order to remove the methanol to obtain an anhydrous form, form beta was dried in vacuum for 2 hours at 70°C. After said desolvation step, crystalline forma alpha was obtained."}, "[4]": {"assay": "Hygroscopicity by Dynamic Vapor Sorption analysis", "type": "physicochemical", "settings": "for gain of weight by absorption of water: 25°C", "experimental": "Dynamic Vapor Sorption Analysis (DVS) were performed in a Mettler Toledo TGA / DSC 1 LF instrument equipped with a LF SDTA FRS2 sensor and coupled with a Modular Humidity Generator MHG 32. Data collection and evaluation was done with STARe software. Measurement conditions: The samples were analysed following a humidity cycle from 20%RH up to 80%RH, down to 3%RH, up to 90 and down to 3%RH in 10% steps of 30 minutes at 25°C. Sample preparation: Approximately 5-10 mg of sample were weighed (using a MX5 Mettler Toledo microbalance) into 150 µL platinum crucibles without lid."}, "[5]": {"assay": "Solid form stability in climatic chamber at 40°C and 75% RH, monitored by PXRD", "type": "physicochemical", "settings": "40°C and 75% RH, 1, 5 and 13 days", "source_text": "(§1) The Powder X-Ray diffraction (PXRD) patterns were acquired on a Bruker D8 Advance Series 2Theta/Theta powder diffraction system using CuKα1-radiation operated at 40 kV and 40 mA in transmission geometry. The system is equipped with a VÅNTEC-1 single photon counting PSD, a Germanium monochromator, a ninety positions auto changer sample stage, fixed divergence slits and a radial soller. Programs used: Data collection with DIFFRAC plus XRD Commander V.2.5.1, and evaluation with High Score Plus 4.9 (Malvern PANalytical B.V.). Measurement conditions: The samples were measured in a range from 4 to 40° in 2θ in a 6 or 30 minutes measurement using an angular step of 0.05° and a time per step of […]. Sample preparation: 20 mg of non-manipulated sample were prepared in standard sample holders using two foils of polyacetate\nA sample of Crystalline Form Alpha of Avatrombopag maleate was stored for 13 days in a climatic chamber at 40°C and 75% RH, and the solid form was monitored by PXRD."}, "[6]": {"assay": "Thermal stability at 90 °C for 24 hours, PXRD and 1H NMR", "type": "physicochemical", "settings": "open or closed vial", "source_text": "as §1\nProton nuclear magnetic resonance analyses (^1H NMR spectroscopy) were recorded in a Bruker 300 NMR spectrometer, equipped with a z gradient 5 mm BBO (Broadband Observe) probe with ATM and an automatic autosampler. Measurement conditions: The samples were analysed at room temperature. Sample preparation: Approximately 2-5 mg of sample were dissolved in 0.7 mL of deuterated solvent (dimethylsulfoxide-d6)."}},
  "note": "Structures can show the parent of a compound that is named as a salt.",
  "data": [
    {"smiles": "O=C(Nc1nc(-c2cc(Cl)cs2)c(N2CCN(C3CCCCC3)CC2)s1)c1cnc(N2CCC(C(=O)O)CC2)c(Cl)c1.O=C(O)/C=C\\C(=O)O", "note": "[Avatrombopag maleate]", "values": [
      {"measurement": "aqueous solubility", "setting": "[1]", "result": "practically insoluble"}
    ]},
    {"smiles": "O=C(Nc1nc(-c2cc(Cl)cs2)c(N2CCN(C3CCCCC3)CC2)s1)c1cnc(N2CCC(C(=O)O)CC2)c(Cl)c1.O=C(O)/C=C\\C(=O)O", "note": "[Form A, Avatrombopag maleate]", "values": [
      {"measurement": "oral absorption", "setting": "[2]", "result": "excellent oral absorption"}
    ]},
    {"smiles": "O=C(Nc1nc(-c2cc(Cl)cs2)c(N2CCN(C3CCCCC3)CC2)s1)c1cnc(N2CCC(C(=O)O)CC2)c(Cl)c1", "note": "[Form B, Avatrombopag maleate]", "values": [
      {"measurement": "oral absorption", "setting": "[2]", "result": "inferior oral absorption"}
    ]},
    {"smiles": "O=C(Nc1nc(-c2cc(Cl)cs2)c(N2CCN(C3CCCCC3)CC2)s1)c1cnc(N2CCC(C(=O)O)CC2)c(Cl)c1.O=C(O)/C=C\\C(=O)O", "note": "[Form C5, Avatrombopag maleate]", "values": [
      {"measurement": "stability of the solid form with time", "setting": "[3]; listed as C5", "result": "lose crystallinity with time"}
    ]},
    {"smiles": "O=C(Nc1nc(-c2cc(Cl)cs2)c(N2CCN(C3CCCCC3)CC2)s1)c1cnc(N2CCC(C(=O)O)CC2)c(Cl)c1.O=C(O)/C=C\\C(=O)O", "note": "[Form C11, Avatrombopag maleate]", "values": [
      {"measurement": "stability of the solid form with time", "setting": "[3]; listed as C11", "result": "unstable"}
    ]},
    {"smiles": "O=C(Nc1nc(-c2cc(Cl)cs2)c(N2CCN(C3CCCCC3)CC2)s1)c1cnc(N2CCC(C(=O)O)CC2)c(Cl)c1.O=C(O)/C=C\\C(=O)O", "note": "[Form C22, Avatrombopag maleate]", "values": [
      {"measurement": "stability of the solid form with time", "setting": "[3]; listed as C22", "result": "lose crystallinity with time"}
    ]},
    {"smiles": "O=C(Nc1nc(-c2cc(Cl)cs2)c(N2CCN(C3CCCCC3)CC2)s1)c1cnc(N2CCC(C(=O)O)CC2)c(Cl)c1", "note": "[Form C, Avatrombopag maleate]", "values": [
      {"measurement": "oral absorption", "setting": "[2]", "result": "excellent oral absorption"}
    ]},
    {"smiles": "O=C(Nc1nc(-c2cc(Cl)cs2)c(N2CCN(C3CCCCC3)CC2)s1)c1cnc(N2CCC(C(=O)O)CC2)c(Cl)c1", "note": "[Form alpha, Avatrombopag maleate]", "values": [
      {"measurement": "solid form (PXRD) before and after DVS analysis", "setting": "[4]; exposure to relative humidity as high as 90%", "result": "preserves its solid form"},
      {"measurement": "gain of weight by absorption of water", "setting": "[4]; relative humidity of 70%", "result": "below 0.3%"},
      {"measurement": "gain of weight by absorption of water", "setting": "[4]; relative humidity of 80%", "result": "below 0.4%"},
      {"measurement": "gain of weight by absorption of water", "setting": "[4]; relative humidity of 90%", "result": "below 0.7%"},
      {"measurement": "solid form (PXRD) after storage", "setting": "[5]", "result": "preserves its solid form"},
      {"measurement": "solid form (PXRD, 1H NMR) after heating", "setting": "[6]", "result": "preserves its solid form"}
    ]},
    {"smiles": "O=C(Nc1nc(-c2cc(Cl)cs2)c(N2CCN(C3CCCCC3)CC2)s1)c1cnc(N2CCC(C(=O)O)CC2)c(Cl)c1.O=C(O)/C=C\\C(=O)O", "note": "[Form gamma, Avatrombopag maleate]", "values": [
      {"measurement": "stability of the solid form with time", "setting": "[3]; listed as form gamma", "result": "spontaneously converted into form beta with time"}
    ]}
  ]
}
